This note sets out measurements from patent US7645781B2, “N-aryl-2-oxazolidinone-5-carboxamides and their derivatives” (Pfizer Inc, priority 2002, dated 2010).

≈ marks a conversion by molar mass, not a printed value.

For the first data set, the system named is Staphylococcus aureus (SAUR 9213). Put plainly: MIC by standard agar dilution method. It counts as cell-based. As to conditions: Mueller Hinton agar, incubated overnight at 35° C., read-out: MIC. The source says: The antibacterial agents of this invention have useful activity against a variety of organisms. The in vitro activity of compounds of this invention can be assessed by standard testing procedures such as the determination of minimum inhibitory concentration (MIC) by agar dilution as described in “Approved Standard. Methods for Dilution Antimicrobial Susceptibility Tests for Bacteria That Grow Aerobically”, 3rd. ed., published 1993 by the National Committee for Clinical Laboratory Standards, Villanova, Pa., USA. The in vitro MICs of test compounds are determined by a standard agar dilution method. A stock drug solution of each analog is prepared in the preferred solvent, usually DMSO:H2O (1:3). Serial 2-fold dilutions of each sample are made using 1.0 ml aliquots of sterile distilled water. To each 1.0 ml aliquot of drug is added 9 ml of molten Mueller Hinton agar medium. The drug-supplemented agar is mixed, poured into 15×100 mm petri dishes, and allowed to solidify and dry prior to inoculation. Vials of each of the test organisms are maintained frozen in the vapor phase of a liquid nitrogen freezer. Test cultures are grown overnight at 35° C. on the medium appropriate for the organism. Colonies are harvested with a sterile swab, and cell suspensions are prepared in Trypticase Soy broth (TSB) to equal the turbidity of a 0.5 McFarland standard. A 1:20 dilution of each suspension is made in TSB. The plates containing the drug supplemented agar are inoculated with a 0.001 ml drop of the cell suspension using a Steers replicator, yielding approximately 10^4 to 10^5 cells per spot. The plates are incubated overnight at 35° C. Following incubation the Minimum Inhibitory Concentration (MIC μg/ml), the lowest concentration of drug that inhibits visible growth of the organism, is read and recorded.
`NC(=O)[C@H]1CN(c2ccc(N3CCOCC3)c(F)c2)C(=O)O1` [Example 1, (5R)-(−)-3-[3-Fluoro-4-(4-morpholinyl)phenyl]-2-oxo-5-oxazolidinecarboxamide]: the minimum inhibitory concentration (MIC) was found to be 4 µg/mL (≈ 12.9 µM).

Take `CNC(=O)[C@H]1CN(c2ccc(N3CCOCC3)c(F)c2)C(=O)O1` [Example 2, (5R)-(−)-3-[3-Fluoro-4-(4-morpholinyl)phenyl]-N-methyl-2-oxo-5-oxazolidinecarboxamide]: the minimum inhibitory concentration (MIC) worked out at 8 µg/mL (≈ 24.7 µM).

As for `C=CCNC(=O)[C@H]1CN(c2ccc(N3CCOCC3)c(F)c2)C(=O)O1` [Example 3, (5R)-(−)-3-[3-Fluoro-4-(4-morpholinyl)phenyl]-N-allyl-2-oxo-5-oxazolidinecarboxamide], the minimal inhibitory concentration (MIC) was determined as 8 µg/mL (≈ 22.9 µM).

As for `CCCNC(=O)[C@H]1CN(c2ccc(N3CCOCC3)c(F)c2)C(=O)O1` [Example 4, (5R)-(−)-3-[3-Fluoro-4-(4-morpholinyl)phenyl]-N-propyl-2-oxo-5-oxazolidinecarboxamide], the MIC amounted to 16 µg/mL (≈ 45.5 µM).

Regarding `CNC(=O)[C@H]1CN(c2ccc3c(c2)CCC(=O)N3C)C(=O)O1` [Example 68, (5R)-N-Methyl-3-(1-methyl-2-oxo-1,2,3,4-tetrahydroquinolin-6-yl)-2-oxo-5-oxazolidinecarboxamide], the MIC stood at 4 µg/mL (≈ 13.2 µM).

For the molecule `NC(=O)[C@H]1CN(c2ccc(N3C=CC(=O)CC3)c(F)c2)C(=O)O1` [Example 69, (5R)-3-[4-(4-Oxo-3,4-dihydro-1(2H)-pyridinyl)-3-fluorophenyl]-2-oxo-5-oxazolidinecarboxamide], the minimum inhibitory concentration (MIC) stood at 2 µg/mL (≈ 6.26 µM).

Consider `CNC(=O)[C@H]1CN(c2ccc(N3C=CC(=O)CC3)c(F)c2)C(=O)O1` [Example 70, (5R)-N-Methyl-3-[4-(4-oxo-3,4-dihydro-1(2H)-pyridinyl)-3-fluorophenyl]-2-oxo-5-oxazolidinecarboxamide], for which the MIC is 2 µg/mL (≈ 6 µM).

As to `CCNC(=O)[C@H]1CN(c2ccc(N3C=CC(=O)CC3)c(F)c2)C(=O)O1` [Example 71, (5R)-N-Ethyl-3-[4-(4-oxo-3,4-dihydro-1(2H)-pyridinyl)-3-fluorophenyl]-2-oxo-5-oxazolidinecarboxamide], the MIC worked out at 4 µg/mL (≈ 11.5 µM).

Take `NC(=O)[C@H]1CN(c2ccc(N3C=CC(=O)CC3)cc2)C(=O)O1` [Example 72, (5R)-3-[4-(4-Oxo-3,4-dihydro-1(2H)-pyridinyl)phenyl]-2-oxo-5-oxazolidinecarboxamide]: the minimum inhibitory concentration (MIC) stood at 2 µg/mL (≈ 6.64 µM).

As to `CNC(=O)[C@H]1CN(c2ccc(N3C=CC(=O)CC3)cc2)C(=O)O1` [Example 73, (5R)-N-Methyl-3-[4-(4-oxo-3,4-dihydro-1(2H)-pyridinyl)phenyl]-2-oxo-5-oxazolidinecarboxamide], the MIC is 2 µg/mL (≈ 6.34 µM).

For the molecule `CCNC(=O)[C@H]1CN(c2ccc(N3C=CC(=O)CC3)cc2)C(=O)O1` [Example 74, (5R)-N-Ethyl-3-[4-(4-oxo-3,4-dihydro-1(2H)-pyridinyl)phenyl]-2-oxo-5-oxazolidinecarboxamide], the minimum inhibitory concentration (MIC) is 8 µg/mL (≈ 24.3 µM).

On to `O=C1C=CN(c2ccc(N3C[C@H](C(=O)NCCF)OC3=O)cc2)CC1` [Example 75, (5R)-N-(2-Fluoroethyl)-3-[4-(4-oxo-3,4-dihydro-1(2H)-pyridinyl)phenyl]-2-oxo-5-oxazolidinecarboxamide], for which the minimal inhibitory concentration (MIC) stood at 8 µg/mL (≈ 23 µM).

Turning to `NC(=O)[C@H]1CN(c2cc(F)c(N3C=CC(=O)CC3)c(F)c2)C(=O)O1` [Example 76, (5R)-3-[4-(4-Oxo-3,4-dihydro-1(2H)-pyridinyl)-3,5-difluorophenyl]-2-oxo-5-oxazolidinecarboxamide], the minimal inhibitory concentration (MIC) was found to be 4 µg/mL (≈ 11.9 µM).

Take `CNC(=O)[C@H]1CN(c2cc(F)c(N3C=CC(=O)CC3)c(F)c2)C(=O)O1` [Example 77, (5R)-N-Methyl-3-[4-(4-oxo-3,4-dihydro-1(2H)-pyridinyl)-3,5-difluorophenyl]-2-oxo-5-oxazolidinecarboxamide]: the minimum inhibitory concentration (MIC) is 2 µg/mL (≈ 5.69 µM).

With `CCNC(=O)[C@H]1CN(c2cc(F)c(N3C=CC(=O)CC3)c(F)c2)C(=O)O1` [Example 78, (5R)-N-Ethyl-3-[4-(4-oxo-3,4-dihydro-1(2H)-pyridinyl)-3,5-difluorophenyl]-2-oxo-5-oxazolidinecarboxamide], the minimum inhibitory concentration (MIC) was 8 µg/mL (≈ 21.9 µM).

`CN1C(=O)C(F)(F)Oc2cc(N3C[C@H](C(N)=O)OC3=O)ccc21` [Example 80, (5R)-3-(2,2-Difluoro-4-methyl-3,4-dihydro-3-oxo-2H-1,4-benzoxazin-7-yl)-2-oxo-5-oxazolidinecarboxamide]: the MIC was found to be 2 µg/mL (≈ 6.11 µM).

With `CNC(=O)[C@H]1CN(c2ccc3c(c2)OC(F)(F)C(=O)N3C)C(=O)O1` [Example 81, (5R)-N-Methyl-3-(2,2-difluoro-4-methyl-3,4-dihydro-3-oxo-2H-1,4-benzoxazin-7-yl)-2-oxo-5-oxazolidinecarboxamide], the minimal inhibitory concentration (MIC) is 4 µg/mL (≈ 11.7 µM).

In the case of `CN1C(=S)CSc2cc(N3C[C@H](C(N)=O)OC3=O)ccc21` [Example 84, 3-(4-Methyl-3-thioxo-3,4-dihydro-2H-1,4-benzothiazin-7-yl)-2-oxo-5-oxazolidinecarboxamide], the MIC came to 2 µg/mL (≈ 6.18 µM).

As for `CNC(=O)[C@H]1CN(c2ccc([C@H]3CC[S@+]([O-])CC3)c(F)c2)C(=O)O1` [Example 85, (5R)-N-Methyl-3-[3-fluoro-4-(trans-tetrahydro-1-oxido-2H-thiopyran-4-yl)phenyl]-2-oxo-5-oxazolidinecarboxamide], the MIC was 2 µg/mL (≈ 5.64 µM).

With `Cn1c(=O)oc2cc(N3C[C@H](C(N)=O)OC3=O)cc(F)c21` [Example 86, (5R)-3-(4-Fluoro-3-methyl-2-oxo-2,3-dihydro-6-benzoxazolyl)-2-oxo-5-oxazolidinecarboxamide], the minimum inhibitory concentration (MIC) was determined as 4 µg/mL (≈ 13.5 µM).

Take `CCn1c(=O)oc2cc(N3C[C@H](C(N)=O)OC3=O)cc(F)c21` [Example 87, (5R)-3-(3-Ethyl-4-fluoro-2-oxo-2,3-dihydro-6-benzoxazolyl) -2-oxo-5-oxazolidinecarboxamide]: the MIC came out at 2 µg/mL (≈ 6.47 µM).

With `CC(C)n1c(=O)oc2cc(N3C[C@H](C(N)=O)OC3=O)cc(F)c21` [Example 88, (5R)-3-(4-Fluoro-3-isopropyl-2-oxo-2,3-dihydro-6-benzoxazolyl)-2-oxo-5-oxazolidinecarboxamide], the MIC was 4 µg/mL (≈ 12.4 µM).

As to `CNC(=O)[C@H]1CN(c2cc(F)c3c(c2)oc(=O)n3C)C(=O)O1` [Example 89, (5R)-3-(4-Fluoro-3-methyl-2-oxo-2,3-dihydro-6-benzoxazolyl)-N-methyl-2-oxo-5-oxazolidinecarboxamide], the MIC amounted to 16 µg/mL (≈ 51.7 µM).

For `CCn1c(=O)oc2cc(N3C[C@H](C(=O)NC)OC3=O)cc(F)c21` [Example 90, (5R)-3-(3-Ethyl-4-fluoro-2-oxo-2,3-dihydro-6-benzoxazolyl)-N-methyl-2-oxo-5-oxazolidinecarboxamide], the minimum inhibitory concentration (MIC) worked out at 4 µg/mL (≈ 12.4 µM).

With `CNC(=O)[C@H]1CN(c2cc(F)c3c(c2)oc(=O)n3C(C)C)C(=O)O1` [Example 91, (5R)-3-(4-Fluoro-3-isopropyl-2-oxo-2,3-dihydro-6-benzoxazolyl)-N-methyl-2-oxo-5-oxazolidinecarboxamide], the minimal inhibitory concentration (MIC) turned out to be 4 µg/mL (≈ 11.9 µM).

System in another data set: not given
Assay: not given
Settings: not given
For the molecule `NC(=O)[C@H]1CN(c2ccc(N3CCOCC3)c(F)c2)C(=O)O1` [Example 1, (5R)-(−)-3-[3-Fluoro-4-(4-morpholinyl)phenyl]-2-oxo-5-oxazolidinecarboxamide], the melting point was 185 to 187 °C (dec.).

In the case of `CNC(=O)[C@H]1CN(c2ccc(N3CCOCC3)c(F)c2)C(=O)O1` [Example 2, (5R)-(−)-3-[3-Fluoro-4-(4-morpholinyl)phenyl]-N-methyl-2-oxo-5-oxazolidinecarboxamide], the melting point is 182 to 183 °C (dec.).

For `C=CCNC(=O)[C@H]1CN(c2ccc(N3CCOCC3)c(F)c2)C(=O)O1` [Example 3, (5R)-(−)-3-[3-Fluoro-4-(4-morpholinyl)phenyl]-N-allyl-2-oxo-5-oxazolidinecarboxamide], the melting point lay within 167 to 169 °C.

The molecule `CCCNC(=O)[C@H]1CN(c2ccc(N3CCOCC3)c(F)c2)C(=O)O1` [Example 4, (5R)-(−)-3-[3-Fluoro-4-(4-morpholinyl)phenyl]-N-propyl-2-oxo-5-oxazolidinecarboxamide] gave a melting point of 165 to 167 °C.

As for `NC(=O)[C@H]1CN(c2ccc(C3CCS(=O)(=O)CC3)c(F)c2)C(=O)O1` [Example 28, (5R)-3-[4-(Tetrahydro-2H-thiopyran-4-yl)-3-fluorophenyl]-2-oxo-5-oxazolidinecarboxamide S,S-dioxide], the melting point was 231 to 234 °C (dec.).
